# Assay results taken from a melting point compilation (Tetko et al.; mined from patent text by program, amines drawn as free bases though some values may be those of a salt).
# Residues, ends and D or L forms follow the SMILES beside them. *: point of attachment. Tos = Cc1ccc(S(=O)(=O)*)cc1
row,melting point,Structure (SMILES)
1,178 °C,CC(=O)OC1CSC(Oc2cccnc2[N+](=O)[O-])C(OC(C)=O)C1OC(C)=O (stereo not drawn)
2,> 280 °C,Cc1nnc2c(Cl)nc3ccc(Cl)cc3n12
3,120 to 123 °C,COC(=O)N1CCc2ccc(C(=O)CCC3CCN(C(=O)c4ccccc4)CC3)cc2CC1
4,122 to 123 °C,Nc1c(CC(=O)O)cccc1Oc1ccccc1F
5,249 to 251 °C,COc1cccc2c1CC(n1cc[nH]c1=S)CC2 (stereo not drawn)
6,200 to 202 °C,O=C(O)c1ccc(-c2nn(Cc3ccccc3)c3ccccc23)o1
7,147 to 148 °C,O=C(O)CCCNc1nc2ccccc2c(=O)o1
8,> 250 °C,O=c1c2ccc(Cl)cc2[nH]c2c(O)nn(Cc3ccoc3)c(=O)c12
9,83 to 85 °C,O=C(C1=C(c2ccc(O)cc2)CCc2ccccc21)c1ccc(OCCN2CCCCC2)cc1
10,249 to 250 °C,COc1ccc(C#Cc2cc3ncc(C#N)c(Nc4cc(OC)c(Cl)cc4Cl)c3s2)cc1
11,80 to 82 °C,Cc1cc(C(F)(F)F)cc(=O)n1C
12,98 °C,COc1ccc(CSC2(C(=O)O)CCCCC2)cc1
13,170 to 172 °C,O=Cc1ccc2c(c1)ncn2-c1cccc(-c2ccccc2)c1
14,136 to 138 °C,O=C(NCl)c1c(C(F)(F)F)cc(Cl)nc1Cl
15,51 to 52 °C,CCCCCCCCCCCC(CCCCC(=O)N(c1ccccc1)c1ccccc1)OC (stereo not drawn)
16,221 to 223 °C,CN1C(=O)CC[C@]2(C)c3ccc(-c4ccc5ccccc5c4)cc3CC[C@@H]12
17,270 to 273 °C,COc1ccc2oc3ccc(Br)cc3c2c1C(=O)Nc1ccncc1
18,181 to 183 °C,O=C(Cc1ccc(Oc2ccccc2)cc1)NNC(=O)c1ccc(O)cc1
19,104 to 106 °C,COc1ccc(C(=O)CCCCCN2CCC(CNC(=O)c3cc(Cl)c(N)cc3OC)CC2)cc1Cl
20,89 to 94 °C,Cc1nccc(NC(=O)C(CC2CCCC2)c2ccc(S(C)(=O)=O)c(C#N)c2)n1 (stereo not drawn)
21,123 to 125 °C,CCCCNC(=O)CC(=O)Nc1ccc(Br)cc1C
22,139 to 143 °C,CCCc1c(C(=O)OCC)c2c3c(ccc2n1C)OC1c2ccc(SC)cc2CCN1C3 (stereo not drawn)
23,158 to 160 °C,O=C(O)C(O)c1ccc(-c2ccc(Cl)cc2)s1 (stereo not drawn)
24,168 °C,Cc1ccc2c(c1)CC(=O)N2
25,235 to 238 °C,Cc1cc(C)nc(-n2cnc(N)n2)n1

row,melting point,Structure (SMILES)
1,221 °C,O=c1c(O)c(-c2nnc(Cc3ccc(F)cc3)o2)oc2ccccc12
2,125 to 127 °C,Cn1nc(N)c2c(F)cccc21
3,> 250 °C,O=C(O)C1=CSC2C(=Cc3ccc4nc5n(c4c3)CCCS5)C(=O)N12 (stereo not drawn)
4,110 to 112 °C,NS(=O)(=O)c1ccccc1CN1CCCC1
5,191 to 193 °C,CS(=O)(=O)n1cnc2cc(Cl)c(Cl)cc21
6,169 °C,O=C(O)CCCC(=O)CNC(=O)c1csc(NC(=O)NCc2ccccc2)n1
7,228 to 229 °C,CCOc1ccc(-c2ccc(N3CC(CNC(C)=O)OC3=O)cc2)ccc1=O (stereo not drawn)
8,86 to 88 °C,CC(C)n1nc(-c2sc(NC(=O)c3ccc(CNCCN4CCOCC4)cc3)nc2-c2ccccc2)ccc1=O
9,119 °C,COC(=O)CCCc1cc2nc(Cl)ccc2n1S(=O)(=O)c1ccc(F)cc1
10,80 to 83 °C,O=C(C=C(O)c1cccs1)C1CCN(Cc2ccccc2)CC1
11,162 °C,CCCC(=NOCC)C1=C(O)CC(c2c(OC)nc(C)c3c2CCCC3=O)CC1=O (stereo not drawn)
12,150 to 155 °C,CCOC(=O)Nc1cc(N[C@H](C)C(=O)c2ccccc2)c([N+](=O)[O-])c(N)n1
13,39 to 39.5 °C,CC(C)=CCCC(C)=CCCC(C)=CC=CC(C)=CC(=O)N(C)C
14,197 to 200 °C,Nc1cnc(-c2ccc(Cl)cc2)n(CC(=O)NC(Cc2ccccc2)C(=O)C(F)(F)F)c1=O (stereo not drawn)
15,137 °C,CC(=O)OC1CSC(Oc2ccc(-c3ccoc3)cc2F)C(OC(C)=O)C1OC(C)=O (stereo not drawn)
16,118 to 120 °C,CCCCN1CCN(c2cccc3c2C[C@H](NC(C)=O)CC3)CC1
17,153 to 155 °C,Cc1ccc(S(=O)(=O)N2CCC[C@H]2C(=O)N[C@@H](CC(=O)O)C(=O)O)cc1 (Tos-Pro-Asp-OH)
18,61 to 86 °C,COc1ccc(OC)c(C(=O)N2CCc3cc(O)ccc3C2)c1
19,146 to 149 °C,COc1ccc(C2=NN(C3CCN(C(=O)CCCOc4ccc5[nH]c(=O)ccc5c4)CC3)C(=O)[C@@H]3CC=CC[C@H]23)cc1OC
20,181 °C,CC1(C(=O)O)Oc2ccc(Cl)cc2C(C)(c2ccccc2)O1 (stereo not drawn)
21,247 to 249 °C,CNC(=O)c1cc2c(nc(C)n2C)c(O)c1CC[C@@H](O)c1ccccc1
22,80 to 83 °C,Oc1ccc(Nc2nc(NCc3ccco3)nc(Nc3cccc(Oc4ccccc4)c3)n2)cc1
23,200 to 204 °C,COCc1c(N2CCN(C)CC2)c(F)cc2c(=O)c(C(=O)OC)cn(C3CC3)c12
24,120 to 125 °C,CCCc1c(OCCCCCCC2(C)CC(=O)c3ccc(OCC(=O)O)c(CCC)c3O2)ccc(C(C)=O)c1O (stereo not drawn)
25,121 to 122 °C,CC(=O)N[C@@H](C)COC1CCN(c2nc3ccc(OCC4CC4)cc3s2)CC1

row,melting point,Structure (SMILES)
1,92 to 96 °C,CC(=O)OC1(C)CN(C(=O)Nc2ccc(C(F)(F)F)cc2)N=C1c1ccc(Cl)cc1 (stereo not drawn)
2,158 to 159 °C,CCCc1nc2c(N)nc3ccccc3c2n1CCCCCC(=O)NC
3,147 to 150 °C,Nc1sc(/C=C/CC2CCCCC2)c(CN(C2CCCCC2)C2CCCCC2)c1C(=O)c1ccc(Cl)cc1
4,143 to 145 °C,CC(C)(C)OC(=O)NC(Cc1ccc(O)cc1)C(=O)N1CCc2c(sc(N)c2C(=O)c2ccccc2)C1 (stereo not drawn)
5,161 °C,COc1ccc(S(=O)(=O)C(C)(Cc2ccc(-c3ccccc3)cc2)C(=O)O)cc1 (stereo not drawn)
6,91 to 93 °C,CCS(=O)CC(=O)c1ccc(-c2ccccc2F)cc1 (stereo not drawn)
7,54 °C,Brc1nnnn1Cc1ccccc1
8,223 to 225 °C,C=CCNc1cc(C(=O)O)cc(S(N)(=O)=O)c1Oc1ccccc1
9,98 to 100 °C,CC(C)c1nn(-c2ccccn2)c(-c2ccc(F)cc2)c1Br
10,113 to 114 °C,O=C(NCc1ccccc1)c1ccc(Cl)nc1
11,202 to 208 °C,COc1ccc(-c2c(C)ccn2N2C(=O)c3ccccc3C2=O)c(Cl)c1
12,154 to 155 °C,Cc1ncc(C#N)c(Nc2ccc3[nH]ccc3c2C)c1-c1cc2ccccc2o1
13,122 °C,CC(C)(C)OC(=O)N1CCOS1(=O)=O
14,> 80 °C,Cc1c2n3ccc4c3c(c3cnccn3c-2cc(=O)c1=O)CCC4
15,135 °C,Nc1onc2c1CCC2
16,> 300 °C,CC(C)(C)OC(=O)c1ccc(C(=O)NS(=O)(=O)c2ccc(Cl)cc2)cc1
17,54 to 56 °C,CCOC(=O)C=C(c1ccc(Cl)cc1)c1ccc(Cl)cc1
18,94 to 95 °C,CCOC(=O)c1ccc2[nH]ccc2c1
19,290 to 292 °C,CCCCNCCOc1ccc(NC(=O)c2c[nH]c3c2C(=O)CCC3)cc1F
20,130 to 131 °C,CCCCCCC1c2cc(CC#N)ccc2-c2ccc(CC#N)cc21
21,61 to 63 °C,Cc1ccc(C(=O)CCCCCBr)cc1C
22,163 to 164 °C,O=C(Nc1ccc2nc(CN3CCCCC3)ccc2c1)c1ccc(-c2ccccc2F)cc1
23,103 °C,CN1C(=O)N(CCC(=O)O)C(C)(C)C1=O
24,166 to 167 °C,CCc1noc(-c2cn(-c3cnccn3)cn2)n1
25,91 to 92 °C,C=CCNc1nc(NC(C)CC)c2scc(C)c2n1 (stereo not drawn)

row,melting point,Structure (SMILES)
1,100 °C,CCCCC[C@H]1CC[C@H](c2cnc(-c3ccc(C#N)cc3)nc2)CC1
2,146 °C,O=C(O)[C@@H](Cc1ccccc1)NS(=O)(=O)c1ccc2ccccc2c1
3,99 to 101 °C,COC(=O)COc1ccc(C(=O)CBr)c2ccccc12
4,164 to 167 °C,Cc1nc[nH]c1CSCCN=C(NC#N)NCCN
5,156 to 163 °C,C=CCn1cc(C(=O)OCC)c(=O)c2cc(C(=O)OC)ccc21
6,214 to 215 °C,CN1C(=O)C2(COc3cc4c(cc32)OCCO4)c2c(C(=O)NCc3ccccn3)cccc21 (stereo not drawn)
7,153 to 155 °C,COc1cc(C=C2COCC3=C2N=C2SCCN2C3c2cc(OC)c(OC)c(OC)c2)cc(OC)c1OC (stereo not drawn)
8,220 to 224 °C,COc1ccc(-c2cc(C(F)(F)F)nn2-c2ccc(S(N)(=O)=O)cc2)cc1I
9,227 to 230 °C,CC1(C)COC(c2ccc(N)cc2)=N1
10,82 to 84 °C,C/C(=N\OC(=O)[C@@H](NC(=O)OC(C)(C)C)C(C)C)[C@H]1CC[C@H]2[C@@H]3CCC4=CC(=O)CC[C@]4(C)[C@H]3CC[C@]12C
11,194 to 198 °C,CCc1nn(C2CCCC2)c2cc(C(=O)Nc3ccc(C(=O)NOCc4ccccc4)cc3)ccc12
12,182 to 189 °C,O=C(c1cccs1)C(Br)c1ccc(F)cc1 (stereo not drawn)
13,196 to 197 °C,Cc1[nH]n(C(C)(C)C)c2nc(Cc3ccccc3)nc(=O)c1-2
14,76 to 77 °C,CCCCCCCCCCCC1OC1C(=O)O (stereo not drawn)
15,144 to 147 °C,Cc1cc(C)n(-c2nccc(NC3CCCCC3)n2)n1
16,96 °C,COc1ccc(-c2cn3ccccc3n2)cc1OC
17,121 to 122 °C,Cc1cc(OC(F)(F)C(F)F)ccc1N1C(=O)c2cccc(Cl)c2C1=O
18,118 to 119 °C,Oc1ccc2c(c1)OCC(c1cccc(C(F)(F)F)c1)C2c1ccc(OCCN2CCCCC2)cc1 (stereo not drawn)
19,47 to 52 °C,CC1CCCN(c2cc3nc(C(C)(C)C)sc3cc2N=C=S)C1 (stereo not drawn)
20,174 to 177 °C,CC(C)(C)NCC(O)COc1ccc(-c2nc(C#N)c[nH]2)cc1 (stereo not drawn)
21,230 °C,O=C(O)c1ccc2c(c1)OCC(=O)N2Cc1ccccc1
22,70.8 °C,COC(=O)Cn1ccnc1Cc1ccccc1
23,123 to 126 °C,Cc1cc(Cl)n(-c2ccc(Cl)nn2)n1
24,62 to 64 °C,O=C1c2ccccc2C(=O)N1OCCOCc1ccccc1F
25,123 to 126 °C,Cc1cc(C)cc(C(=O)Cc2ccnc(N)c2)c1

row,Structure (SMILES),melting point
1,CC1NC(=NO)OC1c1ccccc1 (stereo not drawn),145 to 148 °C
2,CN(C)C1(Cc2ccccc2)CCC(O)(c2cc3ccccc3n2C)CC1 (stereo not drawn),105 to 107 °C
3,CC(=O)c1ccc2c(c1)C(c1ccccc1F)=NC(C)C(=O)N2 (stereo not drawn),203 °C
